Measured values as given in publication PMC8308740 (Pharmaceuticals, 2021).
Several values for one entry are separate records, joined by “and”; a condition that tells them apart may be missing. Equal entries are not always repeated. Entries after “also recorded” stand apart in the source; their conditions may differ. Where two headings read alike, the source gives them in different places.

Assays:
[1] = biological target: T1, TbPTR1 (Trypanosoma brucei brucei, UniProt O76290); details: read-out: TbPTR1 IC50; cited from earlier work
T1 construct: His tag; made in house; host or cells: E. coli
T1 sequence (O76290 1-268): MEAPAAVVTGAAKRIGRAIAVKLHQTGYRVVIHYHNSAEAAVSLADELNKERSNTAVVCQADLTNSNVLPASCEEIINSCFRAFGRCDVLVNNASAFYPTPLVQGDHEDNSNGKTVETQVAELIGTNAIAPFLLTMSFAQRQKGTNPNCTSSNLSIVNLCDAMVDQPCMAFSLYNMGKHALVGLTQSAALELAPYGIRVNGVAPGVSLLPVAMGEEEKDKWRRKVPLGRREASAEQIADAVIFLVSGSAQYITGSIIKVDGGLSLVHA

[2] = biological target: T2, TbDHFR-TS (Trypanosoma brucei brucei, UniProt Q27783); assay: biochemical; format: biochemical; details: for Selectivity IC50 hDHFR /IC50 TbDHFR-TS: ratio, PYR and CYC from Ki values
T2 construct: His tag; made in house; host or cells: E. coli
Experimental: (§1) Recombinant TbPTR1, TbDHFR-TS, and hDHFR were expressed in E. coli as histidine-tagged proteins and purified following established protocols. Purified recombinant enzymes were stored in stock solutions having concentrations of 0.93 mg/mL, 0.53 mg/mL, and 0.88 mg/mL, for TbPTR1, TbDHFR-TS, and hDHFR, respectively. A direct spectrophotometric kinetic test was used to evaluate the inhibitory activity of the compound library. A Jasco-V730 double beam spectrophotometer (Jasco Europe) was employed to perform the assays. Fixed final concentrations of purified TbPTR1, TbDHFR-TS, and hDHFR (15 nM, 55 nM, and 15 nM respectively) were incubated in semi-micro plastic cuvettes (Brand, Tech Scientific, Essex, UK) with 400 µL of sodium citrate buffer at pH = 3.7 and TES buffer (100 mM TES, 50 mM MgCl2, 13 mM CH2O, 2 mM EDTA, 150 mM 2-mercaptoethanol, pH 7.4), plus 25 µM 7,8-dihydro-L-biopterin (H2B, Sigma Aldrich) for TbPTR1 and 50 µM of 7,8-dihydrofolic acid (H2FA, Sigma Aldrich) for TbDHFR-TS and hDHFR enzymes.
(§2) Residual NADP(H) absorption (λmax = 340 nm), converted to NADP^+ as cofactor, was monitored for 180 s of the ongoing reaction and its Δ(OD)/min was registered for v(0) slope at 22.4 °C. Each inhibition assay was performed in triplicate, and five to six different concentrations of compounds were tested to assess their relative IC50.
(§3) The equation used to interpolate points was y = y(min) + (y(max) − y(min))/(1 + (IC50/x)^^HillSlope), where HillSlope was constrained at −1 (standard Michaelis–Menten behaviour for competitive inhibitors), from which IC50 were extrapolated. Standard deviations—as reported in Table 1—were obtained from 95% confidence interval (CI95) of fitting.

[3] = biological target: T1, TbPTR1; assay: biochemical; format: biochemical; details: for Selectivity IC50 TbDHFR-TS /IC50 TbPTR1: ratio, for PYR and CYC calculated assuming a competitive inhibition mechanism; for IC50: recombinant enzyme, citrate buffer pH 3.7, 25 µM H2B, spread from CI95 of fitting; for fold improvement of inhibitory activity against TbPTR1 relative to CYC: versus CYC IC50
Experimental: as §1, §2, §3

[4] = biological target: T3, hDHFR (Homo sapiens, UniProt P00374); assay: hDHFR spectrophotometric enzyme inhibition assay; format: biochemical; details: TES buffer pH 7.4, 50 µM H2FA; spread from CI95 of fitting
T3 construct: His tag; made in house; host or cells: E. coli
T3 sequence (P00374 1-187): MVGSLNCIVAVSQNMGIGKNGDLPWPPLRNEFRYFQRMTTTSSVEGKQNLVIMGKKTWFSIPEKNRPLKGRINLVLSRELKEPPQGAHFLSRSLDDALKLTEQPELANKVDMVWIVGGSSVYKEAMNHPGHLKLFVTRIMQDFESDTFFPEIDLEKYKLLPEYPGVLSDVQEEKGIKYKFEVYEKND
Experimental: as §1, §2, §3

[5] = Stability of compound 6 in solution at different pH (HPLC-ELSD); format: physicochemical; details: pH 10.5, 7 and 3.7, room temperature, overnight / 30 h
Experimental: Although it was unusual, we suspected the potential hydrolysis of the acetamido group to generate an amine and acetic acid. Therefore, we tested the compound stability at pH 10.5, 7, and 3.7 overnight at room temperature.
We have studied the stability of the CYC-like compound 6 to test the hydrolysis of the N-acetyl group in different pH buffers and to screen its putative prodrug action. We prepared three 10 µM solutions from a 100 µM DMSO stock of compound 6 in double deionized water, at pH 10.5 with NaOH, and in citrate buffer, pH 3.7, used for kinetic assays with TbPTR1. We have monitored the purity of these solutions with HPLC–ELSD just after compound dilutions. A volume of 7 µL of each solution was immediately injected in an HPLC Atlantis dC18, 150 × 3.9 mm, 3 µm ID column (Waters Corp, Milford, MA, US) coupled to an ELSD detector (Agilent 1260 Infinity II system). Compounds were eluted with 0.1% formic acid in water (A) and pure acetonitrile (B), gradient 10% to 50% B for 10 min, at 0.5 mL min^−1, room temperature. Detector parameters were set as follows: Neb = 30 °C, Evap = 40 °C, N2 flow = 1.6 SLM, smoothing = 3.0 s. […] Compound stability also was evaluated with 1H-NMR, obtaining the same results. We thus concluded that compound 6 is not susceptible to pH mediated hydrolysis, and acts as a TbPTR1 inhibitor as N-acetylated compounds.

[6] = biological target: the molecule itself; assay: crystal structure; TbPTR1 crystals by hanging drop vapour diffusion at room temperature, 2-2.5 M sodium acetate, 0.1 M sodium citrate pH 5; soaked with 3 mM PYR; space group P21 with a functional tetramer in the asymmetric unit; NADP(H) bound
[7] = TES buffer pH 7.4, 50 µM H2FA, spread from CI95 of fitting, read-out: TbDHFR-TS (IC50 µM)

T2 sequence (Q27783 whole entry): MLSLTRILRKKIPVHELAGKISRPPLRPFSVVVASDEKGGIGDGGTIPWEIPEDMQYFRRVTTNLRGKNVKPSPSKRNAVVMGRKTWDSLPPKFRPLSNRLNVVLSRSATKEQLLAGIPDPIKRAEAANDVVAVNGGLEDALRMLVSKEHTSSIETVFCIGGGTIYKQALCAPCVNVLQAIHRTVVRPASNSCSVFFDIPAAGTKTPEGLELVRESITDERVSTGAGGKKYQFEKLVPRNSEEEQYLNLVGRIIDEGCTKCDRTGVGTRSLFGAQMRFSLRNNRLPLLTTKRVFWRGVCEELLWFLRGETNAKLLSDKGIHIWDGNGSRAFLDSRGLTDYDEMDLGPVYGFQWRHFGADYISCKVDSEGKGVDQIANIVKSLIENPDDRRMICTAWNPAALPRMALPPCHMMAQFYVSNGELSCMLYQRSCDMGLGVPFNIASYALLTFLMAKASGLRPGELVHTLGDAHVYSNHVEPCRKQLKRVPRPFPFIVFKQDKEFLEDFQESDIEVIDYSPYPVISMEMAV

Molecule: CC1(C)N=C(N)N=C(N)N1c1ccc(Cl)cc1 [CYC, cycloguanil]
- IC50 [1]: 31.6 µM

Molecule: CC1N=C(N)N=C(N)N1c1ccc(Cl)cc1 (stereo not shown) [Compound 1]
- IC50 [2]: 103 µM
- Selectivity IC50 hDHFR /IC50 TbDHFR-TS [2]: 3.27
- Selectivity IC50 TbDHFR-TS /IC50 TbPTR1 [3]: 16.9
- IC50 [3]: 6.02 µM
- IC50 [4]: 337 µM

Molecule: CC1(C)N=C(N)N=C(N)N1c1ccc(Cl)c(Cl)c1 [Compound 1a]
- IC50 [1]: 0.692 µM

Molecule: CCCC1N=C(N)N=C(N)N1c1ccc(Cl)cc1 (stereo not shown) [Compound 2]
- IC50 [2]: 7.26 µM
- Selectivity IC50 hDHFR /IC50 TbDHFR-TS [2]: 9.2 and 9.19
- Selectivity IC50 TbDHFR-TS /IC50 TbPTR1 [3]: 0.26
- IC50 [3]: 27.5 µM
- IC50 [4]: 66.7 µM

Molecule: NC1=NC(c2ccc([N+](=O)[O-])cc2)N(c2ccc(Cl)c(Cl)c2)C(N)=N1 (stereo not shown) [Compound 2a]
- IC50 [1]: 0.186 µM

Molecule: NC1=NC2(CCCCC2)N(c2ccc(Cl)cc2)C(N)=N1 [Compound 3]
- IC50 [2, 7]: 17.6 µM
- Selectivity IC50 hDHFR /IC50 TbDHFR-TS [2]: 3.73
- Selectivity IC50 TbDHFR-TS /IC50 TbPTR1 [3]: 14.4
- IC50 [3]: 1.22 µM
- fold improvement of inhibitory activity against TbPTR1 relative to CYC [3]: 30 fold
- IC50 [4]: 65.6 µM

Molecule: CC1(C)N=C(N)N=C(N)N1c1ccc(O)cc1 [Compound 4]
- IC50 [2, 7]: 89 µM
- Selectivity IC50 hDHFR /IC50 TbDHFR-TS [2]: 3.19
- Selectivity IC50 TbDHFR-TS /IC50 TbPTR1 [3]: 21.7
- IC50 [3]: 4.1 µM
- IC50 [4]: 284 µM

Molecule: COc1ccc(N2C(N)=NC(N)=NC2(C)C)cc1 [Compound 5, 1-(4-methoxyphenyl)-6,6-dimethyl-1,6-dihydro-1,3,5-triazine-2,4-diamine]
- IC50 [2, 7]: 33.2 µM
- Selectivity IC50 hDHFR /IC50 TbDHFR-TS [2]: 12.4
- Selectivity IC50 TbDHFR-TS /IC50 TbPTR1 [3]: 49.6
- IC50 [3]: 0.67 µM
- fold improvement of inhibitory activity against TbPTR1 relative to CYC [3]: 46 fold
- IC50 [4]: 413 µM

Molecule: COc1ccc(N2C(N)=NC(NC(C)=O)=NC2(C)C)cc1 [Compound 6, N-[6-amino-5-(4-methoxyphenyl)-4,4-dimethyl-4,5-dihydrotriazin-2-yl]acetamide]
- IC50 [2, 7]: 18.9 µM
- Selectivity IC50 hDHFR /IC50 TbDHFR-TS [2]: 3.31
- Selectivity IC50 TbDHFR-TS /IC50 TbPTR1 [3]: 22.8
- IC50 [3]: 0.83 µM
- IC50 [4]: 62.5 µM
- compound stability (hydrolysis of N-acetyl group), HPLC analysis [5]: fully stable; also recorded: no changes in chromatograms were detected

B1: Trypanosoma brucei pteridine reductase 1 (enzyme)
chain: T1 sequence (O76290 1-268)
notes: pteridine reductase 1 (PTR1) of Trypanosoma brucei, recombinant; also called TbPTR1; PTR1; source: E. coli, histidine-tagged, purified following established protocols
- stoichiometry N [6]: 4
